# According to PubChem BioAssay AID256 (DTP/NCI, 2004):
# Several values for one entry are separate records, joined by “and”; a condition that tells them apart may be missing. Equal values may be shown once. Toxic doses and inconclusive results are not listed.
# Test system: CD2F1 mice, L1210 leukemia ip, survival T/C
# Test: NCI In Vivo Anticancer Drug Screen. Data for tumor model L1210 Leukemia (intraperitoneal) in CD2F1 (CDF1) mice
# Details: higher = longer survival
# Method in brief: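 Read-out first: treated-group measurement over vehicle-control measurement, expressed as a ratio. Animals bore a transplanted tumor line and were dosed with compound or vehicle.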
# [1] = endpoint: mean survival time, dose: 100.0 mg/kg/injection, schedule: Q01DX009 (ip), vehicle: saline with Tween-80
# [2] = endpoint: mean survival time, dose: 200.0 mg/kg/injection, schedule: Q01DX009 (ip), vehicle: saline with Tween-80
# [3] = endpoint: mean survival time, dose: 400.0 mg/kg/injection, schedule: Q01DX009 (ip), vehicle: saline with Tween-80
# [4] = endpoint: mean survival time, dose: 75.0 mg/kg/injection, schedule: Q01DX001 (ip), vehicle: saline
# [5] = endpoint: mean survival time, dose: 150.0 mg/kg/injection, schedule: Q01DX001 (ip), vehicle: saline
# [6] = endpoint: mean survival time, dose: 300.0 mg/kg/injection, schedule: Q01DX001 (ip), vehicle: saline
structure (smiles),measurement,setting,value
CCC1(O)C(=O)OCc2c1cc1n(c2=O)Cc2cc3cc(C)ccc3nc2-1 (stereo not given),T/C,"endpoint: median survival time, dose: 10.0 mg/kg/injection, schedule: Q04DX002 (ip), vehicle: saline with Tween-80",151 % of control and 207 % of control
same,T/C,"endpoint: median survival time, dose: 20.0 mg/kg/injection, schedule: Q04DX002 (ip), vehicle: saline with Tween-80",151 % of control and 192 % of control
same,T/C,"endpoint: median survival time, dose: 40.0 mg/kg/injection, schedule: Q04DX002 (ip), vehicle: saline with Tween-80",162 % of control and 195 % of control
same,T/C,"endpoint: median survival time, dose: 80.0 mg/kg/injection, schedule: Q04DX002 (ip), vehicle: saline with Tween-80",186 % of control
same,T/C,"endpoint: median survival time, dose: 160.0 mg/kg/injection, schedule: Q04DX002 (ip), vehicle: saline with Tween-80",114 % of control
C[N+](C)(C)Cc1ncccc1OC(=O)N(c1ccccc1)c1ccccc1,T/C,"endpoint: mean survival time, dose: 25.0 mg/kg/injection, schedule: Q01DX009 (ip), vehicle: saline with Tween-80",98 % of control
same,T/C,"endpoint: mean survival time, dose: 50.0 mg/kg/injection, schedule: Q01DX009 (ip), vehicle: saline with Tween-80",96 % of control
same,T/C,[1],107 % of control
Cc1ccc(C#N)cn1,T/C,[1],101 % of control
same,T/C,"endpoint: mean survival time, dose: 100.0 mg/kg/injection, schedule: Q04DX003 (ip), vehicle: saline sonified",96 % of control
same,T/C,[2],97 % of control
same,T/C,"endpoint: mean survival time, dose: 200.0 mg/kg/injection, schedule: Q04DX003 (ip), vehicle: saline sonified",96 % of control
same,T/C,[3],90 % of control
same,T/C,"endpoint: mean survival time, dose: 400.0 mg/kg/injection, schedule: Q04DX003 (ip), vehicle: saline sonified",89 % of control
CC1(C)OC2C(CF)OC(n3cc(Br)c(=O)[nH]c3=O)C2O1 (stereo not given),T/C,"endpoint: median survival time, dose: 12.5 mg/kg/injection, schedule: Q01DX005 (ip), vehicle: distilled water + Tween-80",98 % of control
same,T/C,"endpoint: median survival time, dose: 25.0 mg/kg/injection, schedule: Q01DX005 (ip), vehicle: distilled water + Tween-80",94 % of control
same,T/C,"endpoint: median survival time, dose: 50.0 mg/kg/injection, schedule: Q01DX005 (ip), vehicle: distilled water + Tween-80",101 % of control
same,T/C,"endpoint: median survival time, dose: 100.0 mg/kg/injection, schedule: Q01DX005 (ip), vehicle: distilled water + Tween-80",103 % of control
same,T/C,"endpoint: median survival time, dose: 200.0 mg/kg/injection, schedule: Q01DX005 (ip), vehicle: distilled water + Tween-80",88 % of control
COC(=O)C1CN=NC1C(=O)OC (stereo not given),T/C,[1],95 % of control
same,T/C,[2],95 % of control
same,T/C,[3],91 % of control
C=COC(=O)N1CCCCC1,T/C,[4],97 % of control
same,T/C,[5],98 % of control
same,T/C,[6],106 % of control
CNc1nc2cc(C)c(C)cc2n1C1OC(CO)C(O)C1O (stereo not given),T/C,[4],111 % of control
same,T/C,[5],103 % of control
same,T/C,[6],108 % of control
O=C(Nc1ccc2c3c(cccc13)C=C2)c1ccccc1,T/C,"endpoint: mean survival time, dose: 100.0 mg/kg/injection, schedule: Q04DX003 (ip), vehicle: saline with Tween-80",96 % of control
same,T/C,"endpoint: mean survival time, dose: 200.0 mg/kg/injection, schedule: Q04DX003 (ip), vehicle: saline with Tween-80",93 % of control
same,T/C,"endpoint: mean survival time, dose: 400.0 mg/kg/injection, schedule: Q04DX003 (ip), vehicle: saline with Tween-80",93 % of control
CCOCc1cc([N+](=O)[O-])cc([N+](=O)[O-])c1O,T/C,"endpoint: mean survival time, dose: 12.5 mg/kg/injection, schedule: Q04DX003 (ip), vehicle: saline with Tween-80",98 % of control
same,T/C,"endpoint: mean survival time, dose: 25.0 mg/kg/injection, schedule: Q04DX003 (ip), vehicle: saline with Tween-80",98 % of control
same,T/C,"endpoint: mean survival time, dose: 50.0 mg/kg/injection, schedule: Q04DX003 (ip), vehicle: saline with Tween-80",100 % of control
CC1CC([NH-])C([NH-])C(C)(C)C1.[Cl][Pt+2][Cl] (stereo not given),T/C,"endpoint: median survival time, dose: 10.0 mg/kg/injection, schedule: Q04DX003 (ip), vehicle: Klucel (hydroxypropylcellulose) (HPC)",117 % of control
same,T/C,"endpoint: median survival time, dose: 50.0 mg/kg/injection, schedule: Q04DX003 (ip), vehicle: Klucel + Tween-80",153 % of control
same,T/C,"endpoint: median survival time, dose: 100.0 mg/kg/injection, schedule: Q04DX003 (ip), vehicle: Klucel + Tween-80",155 % of control
CCCC(P(=O)(c1ccccc1)c1ccccc1)[P+](CC)(c1ccccc1)c1ccccc1 (stereo not given),T/C,"endpoint: mean survival time, dose: 6.25 mg/kg/injection, schedule: Q04DX002 (ip), vehicle: saline with Tween-80",100 % of control
same,T/C,"endpoint: mean survival time, dose: 12.5 mg/kg/injection, schedule: Q04DX002 (ip), vehicle: saline with Tween-80",96 % of control
same,T/C,"endpoint: mean survival time, dose: 25.0 mg/kg/injection, schedule: Q04DX002 (ip), vehicle: saline with Tween-80",92 % of control
